This is an account of results in patent US4968717A, “Phenylacetonitriles which are substituted by basic groups, their preparation and drugs containing these substances” (BASF Aktiengesellschaft, priority 1986, dated 1990).

Bounds are passed on as bounds.

In one assay the test system is serotonin.
Experiment: not given
The note with it: literature; versus known serotonin antagonists; cited from earlier work.
As to `COc1ccc(CCN(C)CCCC(C#N)(c2cc(OC)c(OC)c(OC)c2)C(C)C)cc1OC` (stereo not shown) [Gallopamil, reference compound], the “antiserotonin action compared with known serotonin antagonists” value is recorded as “not very pronounced”.
Regarding `COc1ccc(CCN(C)CCCC(C#N)(c2ccc(OC)c(OC)c2)C(C)C)cc1OC` (stereo not shown) [Verapamil], the “antiserotonin action compared with known serotonin antagonists” value is “not very pronounced”.

For the next assay, the system named is serotonin-induced increase in blood pressure. The assay can be described thus: inhibition of the serotonin-induced increase in blood pressure in the pithed rat on intravenous administration. The format is in vivo, male Sprague-Dawley rats. The settings on record: at dose 0.0464 mg/kg. The text has this: Pithing is effected by means of a rod through the orbit. […] The criterium for effectiveness of a substance is the relative inhibition (Δ%) of the serotonin-induced increase in blood pressure (ΔmmHg). The valuation was effected quantitatively as an analysis of the linear regression (y=a+b x) of log dose (mg/kg) and relative inhibition (Δ%) of the serotonin-induced increase in blood pressure.
For the compound `COc1cc(CCN(C)CCCC(C#N)(c2ccc(Cl)cc2)C(C)C)cc(OC)c1` (stereo not shown) [Example 42, 5-[(3,5-dimethoxyphenethyl)-methylamino]-2-(4-chlorophenyl)-2-isopropylvaleronitrile], the “relative inhibition (Δ%) of the serotonin-induced increase in blood pressure” value was determined as 19%.

The same assay, now with this note: at dose 0.1 mg/kg.
As to `COc1ccc(CCN(C)CCCC(C#N)(c2cc(OC)c(OC)c(OC)c2)C(C)C)cc1OC` (stereo not shown) [Gallopamil, reference compound], the “relative inhibition (Δ%) of the serotonin-induced increase in blood pressure” value was 22%.

Staying with this assay, now noted: serotonin 0.0215 mg/kg i.v., linear regression of log dose and relative inhibition.
Take “5-[(3,5-dimethoxyphenethyl)-methylamino]-2-(β,β,β-trifluoroethoxyphenyl)-2-isopropylvaleronitrile [Example 30]”: the “ED 50% (dose which inhibits the serotonin-induced increase in blood pressure by 50%)” value is reported as 0.1 mg/kg.

The same assay, now with this note: serotonin 0.0215 mg/kg i.v., linear regression of log dose and relative inhibition, read-out: ED 50% (dose which inhibits the serotonin-induced increase in blood pressure by 50%).
With `COc1cccc(CCN(C)CCCC(C#N)(c2ccc(OC)c(OC)c2)C(C)C)c1` (racemic) [Example 57, (RS)-5-[(3-methoxyphenethyl)-methylamino]-2-(3,4-dimethoxyphenyl)-2-isopropylvaleronitrile], the ED50 was 0.0423 mg/kg.
For the compound `COc1cc(CCN(C)CCCC(C#N)(c2cccc(OC)c2)C(C)C)cc(OC)c1` (stereo not shown) [Example 1, 5-[(3,5-Dimethoxyphenethyl)-methylamino]-2-(3-methoxyphenyl)-2-isopropylvaleronitrile], the ED50 worked out at 0.0464 mg/kg.
Consider `COc1cccc(CCN(C)CCCC(C#N)(c2cc(OC)cc(OC)c2)C(C)C)c1` (stereo not shown) [Example 2, 5-[(3-Methoxyphenethyl)-methylamino]-2-(3,5-dimethoxyphenyl)-2-isopropylvaleronitrile], for which the ED50 was 0.073 mg/kg.
As to `COc1cccc(C(C#N)(CCCN(C)CCc2ccccc2)C(C)C)c1` (stereo not shown) [Example 3, 5-[(Phenethyl)-methylamino]-2-(3-methoxyphenyl)-2-isopropylvaleronitrile], the ED50 is 0.0464 mg/kg.
On the same count and under the same terms, next, `COc1cccc(CCN(C)CCCC(C#N)(c2cccc(OC)c2)C(C)C)c1` (stereo not shown) [Example 4, 5-[(3-Methoxyphenethyl)-methylamino]-2-(3-methoxy-phenyl)-2-isopropylvaleronitrile]: 0.0318 mg/kg; `COc1cc(OC)cc(C(C#N)(CCCN(C)CCc2ccccc2)C(C)C)c1` (stereo not shown) [Example 5, 5-[(Phenethyl)methylamino]-2-(3,5-dimethoxyphenyl)-2-isopropylvaleronitrile]: 0.0464 mg/kg; `COc1cc(OC)cc(C(C#N)(CCCN(C)CCc2ccc(Cl)cc2)C(C)C)c1` (stereo not shown) [Example 6, 5-[(4-Chlorophenethyl)-methylamino]-2-(3,5-dimethoxyphenyl)-2-isopropylvaleronitrile]: 0.1 mg/kg.
Turning to `COc1cc(OC)cc(C(C#N)(CCCN(C)CCc2ccc(Cl)c(Cl)c2)C(C)C)c1` (stereo not shown) [Example 7, 5-[(3,4-Dichlorophenethyl)-methylamino]-2-(3,5-dimethoxyphenyl)-2-isopropylvaleronitrile], the ED50 came out at 0.1 mg/kg.
Regarding `COc1cc(OC)cc(C(C#N)(CCCN(C)CCc2cccc(C(F)(F)F)c2)C(C)C)c1` (stereo not shown) [Example 8, 5-[(3-Trifluoromethylphenethyl)-methylamino]-2-(3,5-dimethoxyphenyl)-2-isopropylvaleronitrile], the ED50 came out at 0.0499 mg/kg.
Same read-out and setting: the same measure for `COc1cccc(CCN(C)CCCC(C#N)(c2ccccc2)C(C)C)c1` (stereo not shown) [Example 13, 5-[(3-methoxyphenethyl)-methylamino]-2-phenyl-2-isopropylvaleronitrile]: 0.0464 mg/kg; for `COc1cc(CCN(C)CCCC(C#N)(c2ccccc2)C(C)C)cc(OC)c1` (stereo not shown) [Example 14, 5-[(3,5-dimethoxyphenethyl)-methylamino]-2-phenyl-2-isopropylvaleronitrile]: 0.0464 mg/kg; for `CCOc1cccc(C(C#N)(CCCN(C)CCc2cc(OC)cc(OC)c2)C(C)C)c1` (stereo not shown) [Example 17, 5-[(3,5-dimethoxyphenethyl)-methylamino]-2-(3-ethoxy-phenyl)-2-isopropylvaleronitrile]: 0.1 mg/kg.
Same read-out and setting: the same measure for `CCOc1cc(CCN(C)CCCC(C#N)(c2cc(OC)cc(OC)c2)C(C)C)cc(OCC)c1` (stereo not shown) [Example 19, 5-[(3,5-diethoxyphenethyl)-methylamino]-2-(3,5-dimethoxyphenyl)-2-isopropylvaleronitrile]: 0.1 mg/kg.
On the same count and under the same terms, the same measure for `COc1cc(OC)cc(C(C#N)(CCCN(C)CCc2ccc(C)c(C)c2)C(C)C)c1` (stereo not shown) [Example 20, 5-[(3,4-xylylethyl)-methylamino]-2-(3,5-dimethoxyphenyl)-2-isopropylvaleronitrile]: 0.1 mg/kg.
As for `CCOc1cc(CCN(C)CCCC(C#N)(c2ccccc2)C(C)C)cc(OCC)c1` (stereo not shown) [Example 24, 5-[(3,5-diethoxyphenethyl)-methylamino]-2-phenyl-2-isopropylvaleronitrile], the ED50 amounted to 0.1 mg/kg.
For `COc1cc(OC)cc(C(C#N)(CCCN(C)CCc2ccc3c(c2)OCO3)C(C)C)c1` (stereo not shown) [Example 27, 5-[(3,4-methylenedioxyphenethyl)-methylamino]-2-(3,5-dimethoxyphenyl)-2-isopropylvaleronitrile], the ED50 was determined as 0.0464 mg/kg.
Same read-out and setting: the same measure for `C=CCC(C#N)(CCCN(C)CCc1ccccc1)c1cccc(Cl)c1` (stereo not shown) [Example 31, 5-[(phenethyl)-methylamino]-2-(3-chlorophenyl)-2-allylvaleronitrile]: 0.464 mg/kg; for `C=CCC(C#N)(CCCN(C)CCc1cccc(OC)c1)c1cccc(Cl)c1` (stereo not shown) [Example 32, 5-[(3-methoxyphenethyl)-methylamino]-2-(3-chlorophenyl)-2-allylvaleronitrile]: 0.316 mg/kg; for `COc1cccc(CCN(C)CCCC(C#N)(c2cc(OC)c(OC)c(OC)c2)C(C)C)c1` (stereo not shown) [Example 36, 5-[(3-methoxyphenethyl)-methylamino]-2-(3,4,5-trimethoxyphenyl)-2-isopropylvaleronitrile]: 0.0464 mg/kg.
On the same count and under the same terms, the same measure for `COc1cc(C(C#N)(CCCN(C)CCc2cccc([N+](=O)[O-])c2)C(C)C)cc(OC)c1OC` (stereo not shown) [Example 37, 5-[(3-nitrophenethyl)-methylamino]-2-(3,4,5-trimethoxyphenyl)-2-isopropylvaleronitrile]: 0.0464 mg/kg.
Same read-out and setting: the same measure for `COc1cc(C(C#N)(CCCN(C)CCc2cccc(Cl)c2)C(C)C)cc(OC)c1OC` (stereo not shown) [Example 38, 5-[(3-chlorophenethyl)-methylamino]-2-(3,4,5-trimethoxyphenyl)-2-isopropylvaleronitrile]: 0.0681 mg/kg; for `COc1cc(C(C#N)(CCCN(C)CCc2ccc3c(c2)COCO3)C(C)C)cc(OC)c1OC` (stereo not shown) [Example 39, 5-[(1,3-benzodioxan-6-ylethyl)-methylamino]-2-(3,4,5-trimethoxyphenyl)-2-isopropylvaleronitrile]: 0.0395 mg/kg.
Take `COc1ccc(C(C#N)(CCCN(C)CCc2ccc(Cl)c(Cl)c2)C(C)C)cc1OC` (stereo not shown) [Example 40, 5-[(3,4-dichlorophenethyl)-methylamino]-2-(3,4-dimethoxyphenyl)-2-isopropylvaleronitrile]: the ED50 was found to be 0.1 mg/kg.
Take `COc1cc(CCN(C)CCCC(C#N)(c2ccc(Cl)c(Cl)c2)C(C)C)cc(OC)c1` (stereo not shown) [Example 41, 5-[(3,5-dimethoxyphenethyl)-methylamino]-2-(3,4-dichlorophenyl)-2-isopropylvaleronitrile]: the ED50 came out at 0.1 mg/kg.
For the compound `COc1cc(CCN(C)CCCC(C#N)(c2ccc(Cl)cc2)C(C)C)cc(OC)c1` (stereo not shown) [Example 42, 5-[(3,5-dimethoxyphenethyl)-methylamino]-2-(4-chlorophenyl)-2-isopropylvaleronitrile], the ED50 was more than 0.0464 mg/kg.
With `COc1cc(CCN(C)CCCC(C#N)(C(C)C)C2CCc3ccccc3C2)cc(OC)c1` (stereo not shown) [Example 43, 5-[(3,5-dimethoxyphenethyl)-methylamino]-2-(1,2,3,4-tetrahydronaphth-2-yl)-2-isopropylvaleronitrile], the ED50 stood at 0.215 mg/kg.
The same measure, in the same setting: next, `CCOc1cccc(C(C#N)(CCCN(C)CCc2ccc(OC)c(OC)c2)C(C)C)c1` (stereo not shown) [Example 44, 5-[(3,4-dimethoxyphenethyl)-methylamino]-2-(3-ethoxy-phenyl)-2-isopropylvaleronitrile]: 0.0464 mg/kg.
On the same count and under the same terms, next, `COc1cccc(CCN(C)CCC[C@@](C#N)(c2ccc(OC)c(OC)c2)C(C)C)c1` [Example 58, (S)-5-[(3-methoxyphenethyl)-methylamino]-2-(3,4-dimethoxyphenyl)-2-isopropylvaleronitrile]: 0.0201 mg/kg; `COc1cc(CCN(C)CCCC(C#N)(c2cc(OC)cc(OC)c2)C(C)C)cc(OC)c1` (stereo not shown) [Example 59, 5-[(3,5-dimethoxyphenethyl)-methylamino]-2-(3,5-dimethoxyphenyl)-2-isopropylvaleronitrile]: 0.0464 mg/kg; `COc1cc(C(C#N)(CCCN(C)CCc2ccccc2)C(C)C)cc(OC)c1OC` (stereo not shown) [Example 60, 5-[(phenethyl)-methylamino]-2-(3,4,5-trimethoxyphenyl)-2-isopropylvaleronitrile]: 0.0464 mg/kg.
Still for that read-out and setting: next, `COc1cc(C(C#N)(CCCN(C)CCc2cccc(C(F)(F)F)c2)C(C)C)cc(OC)c1OC` (stereo not shown) [Example 61, 5-[(3-trifluoromethylphenethyl)-methylamino]-2-(3,4,5-trimethoxyphenyl)-2-isopropylvaleronitrile]: 0.0681 mg/kg; `COc1ccc(CCN(C)CCCC(C#N)(c2cc(OC)c(OC)c(OC)c2)C(C)C)cc1OC` (stereo not shown) [Gallopamil, reference compound]: 0.1 mg/kg.
